Six molecules from US20230099344A1, “COMPOUNDS AND METHODS FOR THE TARGETED DEGRADATION OF IRAK-4” (Arvinas Operations, Inc., priority 2021, published 2023) can be followed below.

Assay [1] has as its system IL6. The assay is described as follows: LPS stimulated IL6 inhibition assay in PBMC. The note with it: Homo sapiens, PBMC, 24 h, human PBMCs, LPS stimulation, compound overnight, IL6 by MSD after 24 hrs; for Dmax: read-out: LPS Stim IL6 inhibition Dmax; for IC50: read-out: LPS stim IL6 inhibition IC50. It is filed as cell-based. Summed up: (§1)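 Seed human PBMC, 2.0×10^6 cells/mL → compound overnight → stimulant (IL-1β, LPS or R848) at per-donor EC50 → 24 hrs → media to MSD for IL6/IL8.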

Assay [2] addresses T1, IRAK-4 (Homo sapiens, UniProt Q9NWZ3).
T1 sequence (Q9NWZ3 1-460): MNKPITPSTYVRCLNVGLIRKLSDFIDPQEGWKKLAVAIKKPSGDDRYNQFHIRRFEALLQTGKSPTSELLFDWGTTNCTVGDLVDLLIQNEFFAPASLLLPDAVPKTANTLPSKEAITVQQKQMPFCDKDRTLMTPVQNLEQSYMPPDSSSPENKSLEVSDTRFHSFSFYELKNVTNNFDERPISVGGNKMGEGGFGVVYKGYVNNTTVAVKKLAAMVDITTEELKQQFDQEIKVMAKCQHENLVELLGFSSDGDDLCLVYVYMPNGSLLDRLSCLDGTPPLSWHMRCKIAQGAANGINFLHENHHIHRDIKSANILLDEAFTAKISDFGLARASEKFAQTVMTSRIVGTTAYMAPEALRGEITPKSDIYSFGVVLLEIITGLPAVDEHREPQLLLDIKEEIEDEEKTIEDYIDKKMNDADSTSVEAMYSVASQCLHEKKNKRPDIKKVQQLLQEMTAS
Briefly: IRAK-4 ELISA, OCI-Ly10 degradation. Format: cell-based. Set-up: endogenous in cells. The note with it: treated overnight; for Dmax: OCI-Ly10, OCI-Ly10 cells; for DC50: OCI-Ly10 cells. Summed up: (§2)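 OCI-Ly10 cells (seeded at 1×10^6/ml) or human PBMC (seeded at 2×10^6/ml) were treated with compound on the day of seeding and incubated overnight. Lysates were then assayed for remaining IRAK-4 protein by sandwich ELISA with a matched antibody pair.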
In general terms: ELISA stands for enzyme-linked immunosorbent assay.

Assay [3] relates to IL6. Briefly: IL-1β stimulated IL6 inhibition assay in PBMC. Format: cell-based. The note with it: PBMC, human PBMCs, IL-1β stimulation, compound overnight, IL6 by MSD after 24 hrs; for IC50: Homo sapiens, 24 h, read-out: IL1β stim IL6 inhibition IC50; for Emax: read-out: IL1β stim IL6 inhibition Ymax. The gist of the method:
as §1

The target in assay [4] is T1, IRAK-4. The assay is described as follows: IRAK-4 ELISA, PBMC degradation. It is filed as cell-based. Details: endogenous in cells; host or cells: PBMC. The note with it: treated overnight. Summed up:
as §2

A further assay relates to IL8. Briefly: IL-1β stimulated IL8 inhibition assay in PBMC. The note with it: human PBMCs, IL-1β stimulation, compound overnight, IL8 by MSD after 24 hrs; for IC50: read-out: IL1β stim IL8 inhibition IC50; for Emax: read-out: IL1β stim IL8 inhibition Ymax. It is filed as cell-based. Summed up: as §1
Assay [5] has as its system IL6. The assay is described as follows: R848 stimulated IL6 inhibition assay in PBMC. It is filed as cell-based. The note with it: PBMC, human PBMCs, R848 stimulation, compound overnight, IL6 by MSD after 24 hrs; for Dmax: Homo sapiens, 24 h, read-out: R848 stim IL6 inhibition Dmax; for IC50: read-out: R848 stim IL6 inhibition IC50. Summed up:
as §1

The target in assay [6] is T1, IRAK-4. Briefly: PD study in C.B.17 SCID mice with OCI-LY1 tumor xenograft. It is filed as in vivo. Set-up: from tissue; host or cells: OCI-Ly1 tumour xenograft from C.B.17 SCID mice. The note with it: OCI-Ly1 tumor lysate, ELISA normalized to total protein; oral 5, 15 or 50 mg/kg, 24 hours post-dose; vs vehicle; FIG. 2. Here is the method:
FIG. 2. PD study in C.B.17 SCID mice with OCI-LY1 tumor xenograft.
PD Study for with in C.B.17 SCID and WT Mice
Cell culture: OCI-Ly1 tumor cells were maintained as a suspension in IMDM medium supplemented with 20% fetal bovine serum under an atmosphere of 5% C02 in air at 37° C. Cell density was maintained below 1×10^6/mL.
Animals: Female C.B. 17 SCID mice aged 6-8 weeks weighing between 16-18 g were used and maintained according to IACUC protocols.
Tumor Inoculation: Each mouse was inoculated with OCI-Ly1 tumor cells (10×106) in 0.1 mL of RPMI with Matrigel. Treatment was initiated when the tumor sizes reached […].
A PD Study in C.B.17 SCID Mice with OCI-LY1 Tumor Xenograft was Performed
In FIG. 2, animals were dosed orally after tumors were inoculated and the tumor sizes reached […], with 5, 15, or 50 mg/kg formulated with 10% DMSO, 90% (2% Tween 80 in PEG 400) and sacrificed humanely 24 hours post-dose. Blood was obtained for isolation of plasma for terminal compound exposure. Tumors was removed and divided in 2 portions, one each for terminal compound concentration and for determination of IRAK-4 content. Compound concentrations were determined by LC/MS with calibrated standards. IRAK-4 content in tumor lysate was quantified by ELISA and normalized to total protein concentration per sample. […]

The target in assay [7] is T2, IRAK-4 (Mus musculus, UniProt Q8R4K2).
T2 construct: plasma, spleen and lung tissue were collected for analysis of compound concentration and IRAK-4 quantification; from tissue; host or cells: spleen and lung of wild type mice
T2 sequence (Q8R4K2 1-459): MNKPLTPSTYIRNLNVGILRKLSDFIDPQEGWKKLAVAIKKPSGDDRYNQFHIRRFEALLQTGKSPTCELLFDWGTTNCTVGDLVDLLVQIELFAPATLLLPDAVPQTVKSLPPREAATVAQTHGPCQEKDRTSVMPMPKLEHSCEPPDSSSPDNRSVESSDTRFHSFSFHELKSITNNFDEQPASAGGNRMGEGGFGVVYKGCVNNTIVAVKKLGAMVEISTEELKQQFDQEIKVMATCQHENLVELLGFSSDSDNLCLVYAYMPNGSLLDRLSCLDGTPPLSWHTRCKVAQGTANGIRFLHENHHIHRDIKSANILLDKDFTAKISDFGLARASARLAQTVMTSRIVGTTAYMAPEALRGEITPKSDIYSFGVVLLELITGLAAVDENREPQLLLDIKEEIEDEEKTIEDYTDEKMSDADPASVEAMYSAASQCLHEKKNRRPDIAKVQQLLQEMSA
The assay is described as follows: PD study in wild type mice (spleen and lung). The note with it: oral 10, 30 or 90 mg/kg, terminated 24 h later, ELISA, vs vehicle, FIGS. 3A and 3B. Format: in vivo. As for the experimental part:
FIGS. 3A and 3B. PD study in wild type mice.
A PD Study in Wild Type Mice was Performed
In FIGS. 3A and 3B, mice were randomly assigned to each treatment group. Animals were dosed orally with 10, 30, or 90 mg/kg compound formulated in 10% DMSO, 90% (2% Tween 80 in PEG 400) and terminated 24 h later. At termination, plasma, spleen and lung tissue were collected for analysis of compound concentration and IRAK-4 quantification. Spleen and lung were snap frozen. IRAK-4 content in any tissue is assessed with the same protocol described for tumor lysates.

SMILES strings stand for the structures.

On to `O=C1CCC(N2Cc3cc(N4CCC(CN5CCC(N6Cc7cc(NC(=O)c8cnn9cccnc89)c(N8CCC(N9CCC9)CC8)cc7C6=O)CC5)CC4)ccc3C2=O)C(=O)N1` (stereo not shown) [Example 97], for which the Dmax is not below 90% in the assay with IL6 [1], not below 90% on IRAK-4 [2], 80 to 90% at IRAK-4 [4] and not below 90% in the assay on IL6 [5]. Also, the IC50 (as a rule, the concentration that gives 50% inhibition) in the assay on IL6 [1] is less than 10 nM; in the assay with IL6 [3] it was less than 10 nM; in the assay on IL8, 10 to 50 nM; in the assay with IL6 [5] it was 10 to 50 nM. Further, the DC50 (in general, the concentration giving 50% degradation) at IRAK-4 [2] was less than 10 nM; at IRAK-4 [4] it was less than 1 nM. The Emax in the assay with IL6 [3] and with IL8 was not below 90% in each case. Moreover, the “PBMC DC90” value on IRAK-4 [4] is on record as “A (A represents a DC90 value <10.0 nM)”.
On to `CC(C)Oc1cc2c(cc1NC(=O)c1cnn3cccnc13)CN(C1CCN(C(C)(C)C3CN(c4ccc5c(c4)C(=O)N(C4CCC(=O)NC4=O)C5=O)C3)CC1)C2=O` (stereo not shown) [Example 112], for which, in the assay with IL6 [1], the Dmax is not below 90% and the IC50 lay within 10 to 50 nM. Moreover, at IRAK-4 [4], the DC50 was 1 to 5 nM, the Dmax is not below 90% and the “PBMC DC90” value is reported as “A (A represents a DC90 value <10.0 nM)”. Besides, the “IRAK-4 concentration in the tumor samples” value on IRAK-4 [6] was “lower”. Also, the “IRAK-4 concentration in spleen and lung samples” value on IRAK-4 [7] is “much lower”. Also, in the assay on IL6 [5], the Dmax was not below 90% and the IC50 was 10 to 50 nM.
Take `O=C1CCC(N2C(=O)c3ccc(N4CC(F)(CN5CCC(n6cc7cc(NC(=O)c8cnn9cccnc89)c(OCC8CC8)cc7n6)CC5)C4)cc3C2=O)C(=O)N1` (stereo not shown) [Example 161, N-(6-(cyclopropylmethoxy)-2-(1-((1-(2-(2,6-dioxopiperidin-3-yl)-1,3-dioxoisoindolin-5-yl)-3-fluoroazetidin-3-yl)methyl)piperidin-4-yl)-2H-indazol-5-yl)pyrazolo[1,5-a]pyrimidine-3-carboxamide]: the Dmax is 70 to 80% in the assay with IL6 [1], not below 90% on IRAK-4 [2], not below 90% on IRAK-4 [4] and not below 90% in the assay on IL6 [5]. The IC50 is 10 to 50 nM in the assay on IL6 [1], 10 to 50 nM with IL6 [3], not below 100 nM in the assay with IL8 and 10 to 50 nM in the assay with IL6 [5]. Further, the DC50 on IRAK-4 [2] lay in the range of 10 to 50 nM; on IRAK-4 [4] it was 1 to 5 nM. In addition, in the assay on IL6 [3], the Emax lay within 80 to 90%. Besides, the “PBMC DC90” value on IRAK-4 [4] is “B (B represents a DC90 value ≥10.0 nM and <25.0 nM)”.
With `O=C1CCC(N2C(=O)c3ccc(N4CCC(CN5CCC(n6cc7cc(NC(=O)c8cnn9cccnc89)c(OCC8CC8)cc7n6)CC5)CC4)cc3C2=O)C(=O)N1` (stereo not shown) [Example 165], the Dmax was 70 to 80% in the assay with IL6 [1], not below 90% at IRAK-4 [2], not below 90% at IRAK-4 [4] and not below 90% in the assay on IL6 [5]. In addition, the IC50 in the assay with IL6 [1] is 10 to 50 nM; in the assay with IL6 [3], less than 10 nM; in the assay with IL8, 10 to 50 nM; in the assay with IL6 [5] it was 10 to 50 nM. The DC50 at IRAK-4 [2] fell in the range of 10 to 50 nM; at IRAK-4 [4] it was 1 to 5 nM. The Emax in the assay with IL6 [3] was in the range of 80 to 90%; with IL8, 70 to 80%. Besides, the “PBMC DC90” value at IRAK-4 [4] is “A (A represents a DC90 value <10.0 nM)”.
For the molecule `O=C1CCC(N2C(=O)c3ccc(N4CCN(CCN5CCC(n6cc7cc(NC(=O)c8cnn9cccnc89)c(OCC8CC8)cc7n6)CC5)CC4)cc3C2=O)C(=O)N1` (stereo not shown) [Example 167], on IRAK-4 [2], the Dmax is not below 90% and the DC50 is less than 10 nM. Moreover, in the assay with IL6 [3], the IC50 lay within 10 to 50 nM and the Emax is not below 90%. At IRAK-4 [4], the DC50 was less than 1 nM, the Dmax is not below 90% and the “PBMC DC90” value is on record as “A (A represents a DC90 value <10.0 nM)”. Further, on IRAK-4 [7], the “IRAK-4 concentration in spleen and lung samples” value was “much lower”. Moreover, in the assay on IL8, the IC50 is not below 100 nM and the Emax is 80 to 90%.
Consider `CC(C)Oc1cc2c(cc1NC(=O)c1cnn3cccnc13)CN([C@H]1CC[C@H](N(C)C3CN(c4ccc5c(c4)C(=O)N(C4CCC(=O)NC4=O)C5=O)C3)CC1)C2=O` (stereo partly shown) [Example 313, N-(2-((1r,4r)-4-((1-(2-(2,6-dioxopiperidin-3-yl)-1,3-dioxoisoindolin-5-yl)azetidin-3-yl)(methyl)amino)cyclohexyl)-6-isopropoxy-1-oxoisoindolin-5-yl)pyrazolo[1,5-a]pyrimidine-3-carboxamide], for which the Dmax in the assay with IL6 [1] was 80 to 90%; at IRAK-4 [2], not below 90%; at IRAK-4 [4], not below 90%; in the assay with IL6 [5], not below 90%. Further, the IC50 is 10 to 50 nM in the assay on IL6 [1], less than 10 nM in the assay with IL6 [3], less than 10 nM with IL8 and less than 10 nM with IL6 [5]. Further, the DC50 at IRAK-4 [2] is less than 10 nM; on IRAK-4 [4], less than 1 nM. The Emax in the assay with IL6 [3] was not below 90%; in the assay with IL8, less than 70%. Moreover, the “PBMC DC90” value at IRAK-4 [4] is on record as “A (A represents a DC90 value <10.0 nM)”.
